Assay results as given in US7462600B2, “Macrolides” (Pfizer Inc, priority 2004, dated 2008).
In brackets after ≈: the same amount, converted by molar mass.

Legend:
Type in all cases: cell-based
[1] = system: Streptococcus pyogenes 1079; assay: MIC, microtiter broth dilution (NCCLS M100-S14), S. pyogenes 1079 (ermB); conditions: Streptococcus pyogenes 1079
Procedure, shortened: (§1)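 Stock solutions of 40 mg/ml in DMSO were used. MIC values came from microtiter-tray broth dilution following NCCLS M100-S14 guidelines.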

[2] = system: Streptococcus pneumoniae 1016; assay: MIC, microtiter broth dilution (NCCLS M100-S14), S. pneumoniae 1016 (susceptible); conditions: Streptococcus pneumoniae 1016
Procedure, shortened: as §1

[3] = system: Streptococcus pneumoniae 1095; conditions: Streptococcus pneumoniae 1095; microtiter broth dilution
Procedure, shortened: as §1

[4] = system: Streptococcus pneumoniae 1175; conditions: Streptococcus pneumoniae 1175; microtiter broth dilution
Procedure, shortened: as §1

[5] = system: Haemophilus influenzae 1218; assay: MIC, microtiter broth dilution (NCCLS M100-S14), H. influenzae 1218 (susceptible); conditions: Haemophilus influenzae 1218
Procedure, shortened: as §1

SMILES | MIC S. pyogenes 1079 [1] [µg/mL] | MIC S. pneumo. 1016 [2] [µg/mL] | MIC S. pneumo. 1095 [3] [µg/mL] | MIC S. pneumo. 1175 [4] [µg/mL] | MIC H. influenzae 1218 [5] [µg/mL]
CCC1OC(=O)C(C)C(=O)C(C)C(OC2OC(C)CC(N(C)C)C2O)C(C)(OC)CC(C)C(=O)C(C)C2N(C3CN(S(=O)(=O)c4c(C)noc4C)C3)C(=O)OC12C (stereo not drawn) [Example 3.32, 3,5-dimethylisoxazole-4-sulfonyl] | 32 (≈ 38.7 µM) | <0.06 | 0.5 (≈ 0.605 µM) | 0.12 (≈ 0.145 µM) | 2 (≈ 2.42 µM)
CCC1OC(=O)C(C)C(=O)C(C)C(OC2OC(C)CC(N(C)C)C2O)C(C)(OC)CC(C)C(=O)C(C)C2N(C3CN(S(=O)(=O)c4ccc(-c5ccon5)s4)C3)C(=O)OC12C (stereo not drawn) [Example 3.33, 3-descladinosyl-11,12-dideoxy-6-O-methyl-3-oxo-12,11-(1-(oxycarbonyl-(5-(isoxazol-3-yl)thiophene-2-sulfonyl)-azetidin-3-yl)-imino)-erythromycin A] | 8 (≈ 9.08 µM) | <0.06 | <0.06 | <0.06 | 0.5 (≈ 0.567 µM)
CCC1OC(=O)C(C)C(=O)C(C)C(OC2OC(C)CC(N(C)C)C2O)C(C)(OC)CC(C)C(=O)C(C)C2N(C3CN(S(=O)(=O)c4ccc(Oc5ccccn5)cc4)C3)C(=O)OC12C (stereo not drawn) [Example 3.34, 4-(pyridin-2-yloxy)benzenesulfonyl] | 64 (≈ 71 µM) | <0.06 | 1 (≈ 1.11 µM) | 0.12 (≈ 0.133 µM) | 16 (≈ 17.8 µM)
CCC1OC(=O)C(C)C(=O)C(C)C(OC2OC(C)CC(N(C)C)C2O)C(C)(OC)CC(C)C(=O)C(C)C2N(C3CN(S(=O)(=O)c4cccc(-c5cnco5)c4)C3)C(=O)OC12C (stereo not drawn) [Example 3.35, 3-descladinosyl-11,12-dideoxy-6-O-methyl-3-oxo-12,11-(oxycarbonyl-(1-(3-(oxazol-5-yl)benzenesulfonyl)-azetidin-3-yl)-imino)-erythromycin A] | 1 (≈ 1.14 µM) | <0.06 | <0.06 | <0.06 | 0.12 (≈ 0.137 µM)
CCC1OC(=O)C(C)C(=O)C(C)C(OC2OC(C)CC(N(C)C)C2O)C(C)(OC)CC(C)C(=O)C(C)C2N(C3CN(S(=O)(=O)c4cccc(-c5cc[nH]n5)c4)C3)C(=O)OC12C (stereo not drawn) [Example 3.36, 3-descladinosyl-11,12-dideoxy-6-O-methyl-3-oxo-12,11-(oxycarbonyl-(1-(3-(1H-pyrazol-3-yl)benzenesulfonyl)-azetidin-3-yl)-imino)-erythromycin A] | 1 (≈ 1.14 µM) | <0.06 | <0.06 | <0.06 | 0.25 (≈ 0.286 µM)
CCC1OC(=O)C(C)C(=O)C(C)C(OC2OC(C)CC(N(C)C)C2O)C(C)(OC)CC(C)C(=O)C(C)C2N(C3CN(S(=O)(=O)c4cccnc4OC)C3)C(=O)OC12C (stereo not drawn) [Example 3.37, 2-methoxypyridine-3-sulfonyl] | 16 (≈ 19.1 µM) | <0.06 | 4 (≈ 4.77 µM) | <0.06 | 0.5 (≈ 0.596 µM)
CCC1OC(=O)C(C)C(=O)C(C)C(OC2OC(C)CC(N(C)C)C2O)C(C)(OC)CC(C)C(=O)C(C)C2N(C3CN(S(=O)(=O)c4ccc(OC)nc4)C3)C(=O)OC12C (stereo not drawn) [Example 3.38, 6-methoxypyridine-3-sulfonyl] | 64 (≈ 76.3 µM) | <0.06 | 1 (≈ 1.19 µM) | <0.06 | 0.5 (≈ 0.596 µM)
CCC1OC(=O)C(C)C(=O)C(C)C(OC2OC(C)CC(N(C)C)C2O)C(C)(OC)CC(C)C(=O)C(C)C2N(C3CN(S(=O)(=O)c4ccc(-c5ccn[nH]5)cc4)C3)C(=O)OC12C (stereo not drawn) [Example 3.39, 3-descladinosyl-11,12-dideoxy-6-O-methyl-3-oxo-12,11-(oxycarbonyl-(1-(4-(1H-pyrazol-5-yl)benzenesulfonyl)-azetidin-3-yl)-imino)-erythromycin A] | 0.25 (≈ 0.286 µM) | <0.06 | <0.06 | <0.06 | 0.5 (≈ 0.572 µM)
CCC1OC(=O)C(C)C(=O)C(C)C(OC2OC(C)CC(N(C)C)C2O)C(C)(OC)CC(C)C(=O)C(C)C2N(C3CN(S(=O)(=O)c4cccc(-c5cc(C)no5)c4)C3)C(=O)OC12C (stereo not drawn) [Example 3.40, 3-descladinosyl-11,12-dideoxy-6-O-methyl-3-oxo-12,11-(oxycarbonyl-1(-(3-(3-methylisoxazol-5-yl)benzenesulfonyl)-azetidin-3-yl)-imino)-erythromycin A] | 4 (≈ 4.5 µM) | <0.06 | <0.06 | <0.06 | 2 (≈ 2.25 µM)
CCC1OC(=O)C(C)C(=O)C(C)C(OC2OC(C)CC(N(C)C)C2O)C(C)(OC)CC(C)C(=O)C(C)C2N(C3CN(S(=O)(=O)c4cccc(-c5ncon5)c4)C3)C(=O)OC12C (stereo not drawn) [Example 3.41, 3-descladinosyl-11,12-dideoxy-6-O-methyl-3-oxo-12,11-(oxycarbonyl-(1-(3-(1,2,4-oxadiazol-3-yl)benzenesulfonyl)-azetidin-3-yl)-imino)-erythromycin A] | 8 (≈ 9.13 µM) | <0.06 | <0.06 | <0.06 | 0.25 (≈ 0.285 µM)
CCC1OC(=O)C(C)C(=O)C(C)C(OC2OC(C)CC(N(C)C)C2O)C(C)(OC)CC(C)C(=O)C(C)C2N(C3CN(S(=O)(=O)c4ccc5c(c4)CC(=O)N5)C3)C(=O)OC12C (stereo not drawn) [Example 3.42, 3-descladinosyl-11,12-dideoxy-6-O-methyl-3-oxo-12,11-(oxycarbonyl-(1-(2-oxoindoline-5-sulfonyl)-azetidin-3-yl)-imino)-erythromycin A] | 2 (≈ 2.32 µM) | <0.06 | <0.06 | 0.5 (≈ 0.579 µM) | 2 (≈ 2.32 µM)
CCC1OC(=O)C(C)C(=O)C(C)C(OC2OC(C)CC(N(C)C)C2O)C(C)(OC)CC(C)C(=O)C(C)C2N(C3CN(S(=O)(=O)c4ccc5oc(=O)[nH]c5c4)C3)C(=O)OC12C (stereo not drawn) [Example 3.43, 3-descladinosyl-11,12-dideoxy-6-O-methyl-3-oxo-12,11-(oxycarbonyl-(1-(2,3-dihydro-2-oxobenzo[d]oxazole-5-sulfonyl)-azetidin-3-yl)-imino)-erythromycin A] | 1 (≈ 1.16 µM) | <0.06 | <0.06 | 0.5 (≈ 0.578 µM) | 0.5 (≈ 0.578 µM)
CCC1OC(=O)C(C)C(=O)C(C)C(OC2OC(C)CC(N(C)C)C2O)C(C)(OC)CC(C)C(=O)C(C)C2N(C3CN(S(=O)(=O)c4ccc(-n5cccn5)cc4)C3)C(=O)OC12C (stereo not drawn) [Example 3.44, 3-descladinosyl-11,12-dideoxy-6-O-methyl-3-oxo-12,11-(oxycarbonyl-(1-(4-(1H-pyrazol-1-yl)benzenesulfonyl)-azetidin-3-yl)-imino)-erythromycin A] | 0.12 (≈ 0.137 µM) | <0.06 | <0.06 | <0.06 | 0.25 (≈ 0.286 µM)
CCC1OC(=O)C(C)C(=O)C(C)C(OC2OC(C)CC(N(C)C)C2O)C(C)(OC)CC(C)C(=O)C(C)C2N(C3CN(S(=O)(=O)c4ccc(-c5csnn5)cc4)C3)C(=O)OC12C (stereo not drawn) [Example 3.45, 3-descladinosyl-11,12-dideoxy-6-O-methyl-3-oxo-12,11-(oxycarbonyl-(1-(4-(1,2,3-thiadiazol-4-yl)benzenesulfonyl)-azetidin-3-yl)-imino)-erythromycin A] | 0.12 (≈ 0.135 µM) | <0.06 | <0.06 | <0.06 | 0.25 (≈ 0.28 µM)
CCC1OC(=O)C(C)C(=O)C(C)C(OC2OC(C)CC(N(C)C)C2O)C(C)(OC)CC(C)C(=O)C(C)C2N(C3CN(S(=O)(=O)c4ccc(N5CCOCC5)c(F)c4)C3)C(=O)OC12C (stereo not drawn) [Example 3.46, 3-fluoro-4-morpholinobenzenesulfonyl] | 32 (≈ 35.1 µM) | <0.06 | 0.5 (≈ 0.549 µM) | <0.06 | 2 (≈ 2.2 µM)
CCC1OC(=O)C(C)C(=O)C(C)C(OC2OC(C)CC(N(C)C)C2O)C(C)(OC)CC(C)C(=O)C(C)C2N(C3CN(S(=O)(=O)c4ccc(-n5nc(C)cc5C)cc4)C3)C(=O)OC12C (stereo not drawn) [Example 3.47, 4-(3,5-dimethyl-1H-pyrazol-1-yl)benzenesulfonyl] | 64 (≈ 70.9 µM) | <0.06 | 0.5 (≈ 0.554 µM) | <0.06 | 8 (≈ 8.87 µM)
CCC1OC(=O)C(C)C(=O)C(C)C(OC2OC(C)CC(N(C)C)C2O)C(C)(OC)CC(C)C(=O)C(C)C2N(C3CN(S(=O)(=O)c4ccc(C#N)nc4)C3)C(=O)OC12C (stereo not drawn) [Example 3.48, 6-cyanopyridine-3-sulfonyl] | >64.00 | <0.06 | 1 (≈ 1.2 µM) | <0.06 | 0.5 (≈ 0.6 µM)
CCC1OC(=O)C(C)C(=O)C(C)C(OC2OC(C)CC(N(C)C)C2O)C(C)(OC)CC(C)C(=O)C(C)C2N(C3CN(S(=O)(=O)c4cccc5c(C#N)cccc45)C3)C(=O)OC12C (stereo not drawn) [Example 3.49] | 0.5 (≈ 0.566 µM) | <0.06 | <0.06 | <0.06 | 0.5 (≈ 0.566 µM)
